Where two headings read alike, the source gives them in different places.
Experiments:
[1] = system: human multiple myeloma cell line, OPM-2; test: Cell viability assay (OPM-2 10 FBS), CellTiter-Glo; assay type: cell-based
Summary of the method: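 IC50 values come from 4-parameter logistic fits of luminescence signals reflecting cell viability. Treatment lasted 16 h at 37 °C in complete medium with 10% FBS, starting from 3000 cells/well.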

[2] = target: recombinant human Mcl-1 (residues 171-327) / Bim interaction (Homo sapiens (Human), UniProt Q07820); test: biochemical; assay type: binding; details: read-out: Mcl-1 HTRF IC50
Sequence of recombinant human Mcl-1 (residues 171-327) / Bim interaction (Q07820 171-327): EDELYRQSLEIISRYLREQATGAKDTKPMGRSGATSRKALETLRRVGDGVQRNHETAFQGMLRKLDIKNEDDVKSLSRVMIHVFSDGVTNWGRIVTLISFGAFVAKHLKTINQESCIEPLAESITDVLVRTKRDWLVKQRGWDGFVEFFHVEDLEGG
Experimental: The inhibition of the Mcl-1/Bim interaction was measured using a time-resolved fluorescence resonance energy transfer (TR-FRET) assay. […] The TR-FRET assay was conducted in a 384-well white OptiPlate™ (PerkinElmer, Waltham, Mass.) in a total volume of 40 μL. The reaction mixture contained 0.1 nM Mcl-1(171-327), 0.05 nM biotin-Bim (51-76), 0.05 nM LANCE® Eu-W1024 Anti-6×His (PerkinElmer), 0.072 nM Streptavidin-Xlent (Cisbio, Bedford, Mass.), and serially diluted test compounds in the binding buffer of 20 mM Hepes, pH 7.5, 150 mM NaCl, 0.016 mM Brij®35, and 1 mM dithiothreitol. Test compounds were pre-incubated with Mcl-1(171-327) and biotin-Bim (51-76) for 60 min before addition of the detection mixture (LANCE® Eu-W1024 Anti-6×His and Streptavidin-Xlent). The reaction plates were further incubated overnight and then were read on an Envision® multimode reader (PerkinElmer). Fluorescence signals were measured at 620 nm (40-nm bandwidth) and 665 nm (7.5-nm bandwidth) with a 60 is delay after excitation at 320 nm (75-nm bandwidth). The signal ratio at 665/620 nm corresponded to the Mcl-1/Bim interaction and was used in all data analyses. The IC50 values of test compounds were determined from duplicate data by analyzing competition curves using a four-parameter sigmoidal model in GraphPad Prism (GraphPad Software, San Diego, Calif.) or in Genedata Screener® (Genedata, Basel, Switzerland).

[3] = read-out: OPM-2 10% FBS IC50 IP, OPM-2 cells, 10% FBS, 16 h incubation
[4] = 0.1 nM Mcl-1(171-327), 0.05 nM biotin-Bim (51-76)
[5] = Homo sapiens, OPM-2, 16 h, read-out: OPM-2 10% FBS IC50 IP, OPM-2 cells, 10% FBS, 16 h, CellTiter-Glo
[6] = TR-FRET, Mcl-1(171-327) / biotin-Bim (51-76)
[7] = read-out: OPM-2 10% FBS IC50 IP, OPM-2 cells, 10% FBS, 16 h, CellTiter-Glo

SMILES | IC50 [1, 3] [nM] | IC50 [2, 4] [nM] | IC50 [1, 5] [nM] | IC50 [2, 6] [nM] | IC50 [1, 7] [nM]
CO[C@]1(CN2CCN3CCS(=O)(=O)C[C@@H]3C2)/C=C/C[C@H](C)[C@@H](C)S(=O)(=O)NC(=O)c2ccc3c(c2)N(C[C@@H]2CC[C@H]21)C[C@@]1(CCCc2cc(Cl)ccc21)CO3 (single isomer, unassigned) [Example 221] | 120 | 0.069 |  |  | 
CO[C@@]1(CN2CCN3CCS(=O)(=O)C[C@@H]3C2)/C=C/C[C@H](C)[C@@H](C)S(=O)(=O)NC(=O)c2ccc3c(c2)N(C[C@@H]2CC[C@H]21)C[C@@]1(CCCc2cc(Cl)ccc21)CO3 (single isomer, unassigned) [Example 231] | 98 | 0.061 |  |  | 
CO[C@@]1(CN2CCN3CCS(=O)(=O)C[C@@H]3C2)/C=C/C[C@H](C)[C@@H](C)S(=O)(=O)NC(=O)c2ccc3c(c2)N(C[C@@H]2CC[C@H]21)C[C@@]1(CCCc2cc(Cl)ccc21)CO3 (single isomer, unassigned) [Example 232] | 200 | 0.141 |  |  | 
CO[C@]1(CN2CCN3CCN(S(C)(=O)=O)C[C@@H]3C2)/C=C/C[C@H](C)[C@@H](C)S(=O)(=O)NC(=O)c2ccc3c(c2)N(C[C@@H]2CC[C@H]21)C[C@@]1(CCCc2cc(Cl)ccc21)CO3 (single isomer, unassigned) [Example 237] | 64 | 0.13 |  |  | 
CO[C@]1(CN2CCN3CCN(S(C)(=O)=O)C[C@@H]3C2)/C=C/C[C@H](C)[C@@H](C)S(=O)(=O)NC(=O)c2ccc3c(c2)N(C[C@@H]2CC[C@H]21)C[C@@]1(CCCc2cc(Cl)ccc21)CO3 (single isomer, unassigned) [Example 238] | 76 | 0.176 |  |  | 
CO[C@@]1(CN2CCN3CCN(C(C)C)C[C@@H]3C2)/C=C/C[C@H](C)[C@@H](C)S(=O)(=O)NC(=O)c2ccc3c(c2)N(C[C@@H]2CC[C@H]21)C[C@@]1(CCCc2cc(Cl)ccc21)CO3 (single isomer, unassigned) [Example 240] | 141 | 0.128 |  |  | 
CO[C@@]1(CN2CCN3CCN(C(C)C)C[C@@H]3C2)/C=C/C[C@H](C)[C@@H](C)S(=O)(=O)NC(=O)c2ccc3c(c2)N(C[C@@H]2CC[C@H]21)C[C@@]1(CCCc2cc(Cl)ccc21)CO3 (single isomer, unassigned) [Example 241] | 137 | 0.15 |  |  | 
CO[C@@]1(CN2CCN3CCN(S(C)(=O)=O)C[C@@H]3C2)/C=C/C[C@H](C)[C@@H](C)S(=O)(=O)NC(=O)c2ccc3c(c2)N(C[C@@H]2CC[C@H]21)C[C@@]1(CCCc2cc(Cl)ccc21)CO3 (single isomer, unassigned) [Example 244] | 638 | 1.65 |  |  | 
CO[C@@]1(CN2CCN3CCN(S(C)(=O)=O)C[C@@H]3C2)/C=C/C[C@H](C)[C@@H](C)S(=O)(=O)NC(=O)c2ccc3c(c2)N(C[C@@H]2CC[C@H]21)C[C@@]1(CCCc2cc(Cl)ccc21)CO3 (single isomer, unassigned) [Example 245] | 58 | 0.12 |  |  | 
CO[C@@]1(CN2CCN3CC[C@H](F)C[C@@H]3C2)/C=C/C[C@H](C)[C@@H](C)S(=O)(=O)NC(=O)c2ccc3c(c2)N(C[C@@H]2CC[C@H]21)C[C@@]1(CCCc2cc(Cl)ccc21)CO3 (single isomer, unassigned) [Example 283] | 839 | 0.354 |  |  | 
CO[C@@]1(CN2CCN3CC[C@H](F)C[C@@H]3C2)/C=C/C[C@H](C)[C@@H](C)S(=O)(=O)NC(=O)c2ccc3c(c2)N(C[C@@H]2CC[C@H]21)C[C@@]1(CCCc2cc(Cl)ccc21)CO3 (single isomer, unassigned) [Example 284] | 230 | 0.288 |  |  | 
CO[C@@]1(CN2CCN([C@H]3CCOC3)CC2)/C=C/C[C@H](C)[C@@H](C)S(=O)(=O)NC(=O)c2ccc3c(c2)N(C[C@@H]2CC[C@H]21)C[C@@]1(CCCc2cc(Cl)ccc21)CO3 (single isomer, unassigned) [Example 285] | 62 | 0.107 |  |  | 
CO[C@@]1(CN2CCN([C@@H]3CCOC3)CC2)/C=C/C[C@H](C)[C@@H](C)S(=O)(=O)NC(=O)c2ccc3c(c2)N(C[C@@H]2CC[C@H]21)C[C@@]1(CCCc2cc(Cl)ccc21)CO3 (single isomer, unassigned) [Example 286] | 50 | 0.155 |  |  | 
CO[C@@]1(CN2CCN3CCC(F)(F)C[C@@H]3C2)/C=C/C[C@H](C)[C@@H](C)S(=O)(=O)NC(=O)c2ccc3c(c2)N(C[C@@H]2CC[C@H]21)C[C@@]1(CCCc2cc(Cl)ccc21)CO3 (single isomer, unassigned) [Example 288] | 652 | 0.484 |  |  | 
CO[C@@]1(CN2CCN3CCC(F)(F)C[C@H]3C2)/C=C/C[C@H](C)[C@@H](C)S(=O)(=O)NC(=O)c2ccc3c(c2)N(C[C@@H]2CC[C@H]21)C[C@@]1(CCCc2cc(Cl)ccc21)CO3 (single isomer, unassigned) [Example 289] | 131 | 0.214 |  |  | 
CO[C@@]1(CN2CCN3CCN(C(=O)CCS(=O)(=O)c4ccccc4)C[C@@H]3C2)/C=C/C[C@H](C)[C@@H](C)S(=O)(=O)NC(=O)c2ccc3c(c2)N(C[C@@H]2CC[C@H]21)C[C@@]1(CCCc2cc(Cl)ccc21)CO3 (single isomer, unassigned) [Example 294] | 687 | 0.66 |  |  | 

SMILES | IC50 [1, 3] [nM] | IC50 [2, 4] [nM] | IC50 [1, 5] [nM] | IC50 [2, 6] [nM] | IC50 [1, 7] [nM]
CO[C@@]1(CN2CCN3CCN(C(=O)CCS(=O)(=O)c4ccccc4)C[C@H]3C2)/C=C/C[C@H](C)[C@@H](C)S(=O)(=O)NC(=O)c2ccc3c(c2)N(C[C@@H]2CC[C@H]21)C[C@@]1(CCCc2cc(Cl)ccc21)CO3 (single isomer, unassigned) [Example 295] | 104 | 0.321 |  |  | 
CO[C@]1(CN2CCN3CCC(F)(F)C[C@@H]3C2)/C=C/C[C@H](C)[C@@H](C)S(=O)(=O)NC(=O)c2ccc3c(c2)N(C[C@@H]2CC[C@H]21)C[C@@]1(CCCc2cc(Cl)ccc21)CO3 (single isomer, unassigned) [Example 298] | 262 | 0.279 |  |  | 
CO[C@]1(CN2CCN3CCC(F)(F)C[C@H]3C2)/C=C/C[C@H](C)[C@@H](C)S(=O)(=O)NC(=O)c2ccc3c(c2)N(C[C@@H]2CC[C@H]21)C[C@@]1(CCCc2cc(Cl)ccc21)CO3 (single isomer, unassigned) [Example 299] | 456 | 0.367 |  |  | 
CO[C@]1(CN2CCN3CC[C@H](F)C[C@@H]3C2)/C=C/C[C@H](C)[C@@H](C)S(=O)(=O)NC(=O)c2ccc3c(c2)N(C[C@@H]2CC[C@H]21)C[C@@]1(CCCc2cc(Cl)ccc21)CO3 (single isomer, unassigned) [Example 325] | 192 | 0.18 |  |  | 
CO[C@]1(CN2CCN3CC[C@H](F)C[C@@H]3C2)/C=C/C[C@H](C)[C@@H](C)S(=O)(=O)NC(=O)c2ccc3c(c2)N(C[C@@H]2CC[C@H]21)C[C@@]1(CCCc2cc(Cl)ccc21)CO3 (single isomer, unassigned) [Example 326] | 488 | 0.307 |  |  | 
CO[C@]1(CN2CCN3CCCC[C@@H]3C2)/C=C/C[C@H](C)[C@@H](C[C@H](C)O)S(=O)(=O)NC(=O)c2ccc3c(c2)N(C[C@@H]2CC[C@H]21)C[C@@]1(CCCc2cc(Cl)ccc21)CO3 (single isomer, unassigned) [Example 362] | 58 | 0.061 |  |  | 
CO[C@]1(CN2CCN3CCCC[C@@H]3C2)/C=C/C[C@H](C)[C@@H](C[C@H](C)O)S(=O)(=O)NC(=O)c2ccc3c(c2)N(C[C@@H]2CC[C@H]21)C[C@@]1(CCCc2cc(Cl)ccc21)CO3 (single isomer, unassigned) [Example 363] | 101 | 0.08 |  |  | 
C[C@@H]1[C@@H](C)CCC[C@]2(CN3CCOC[C@H]3CO2)[C@@H]2CC[C@H]2CN2C[C@@]3(CCCc4cc(Cl)ccc43)COc3ccc(cc32)C(=O)NS1(=O)=O (single isomer, unassigned) [Example 399] | 2100 | 0.401 |  |  | 
C[C@@H]1[C@@H](C)CCC[C@@](O)(CN=[N+]=[N-])[C@@H]2CC[C@H]2CN2C[C@@]3(CCCc4cc(Cl)ccc43)COc3ccc(cc32)C(=O)NS1(=O)=O (single isomer, unassigned) [Example 506] | 7430 | 3.8 |  |  | 
C[C@@H]1[C@@H](C)CCC[C@@](O)(CN)[C@@H]2CC[C@H]2CN2C[C@@]3(CCCc4cc(Cl)ccc43)COc3ccc(cc32)C(=O)NS1(=O)=O (single isomer, unassigned) [Example 507] | > 33300 | 13.7 |  |  | 
CO[C@@]1(C#CCCN2CCOCC2)/C=C/C[C@H](C)[C@@H](C)S(=O)(=O)NC(=O)c2ccc3c(c2)N(C[C@@H]2CC[C@H]21)C[C@@]1(CCCc2cc(Cl)ccc21)CO3 (single isomer, unassigned) [Example 100012] |  |  | 1130 | 0.275 | 
C[C@@H]1[C@@H](C)C/C=C/[C@@](O)(C#CCCN2CCOCC2)[C@@H]2CC[C@H]2CN2C[C@@]3(CCCc4cc(Cl)ccc43)COc3ccc(cc32)C(=O)NS1(=O)=O (single isomer, unassigned) [Example 100017] |  |  |  | 0.039 | 40
C[C@@H]1[C@@H](C)C/C=C/[C@@](O)(C#CCN2CCOCC2)[C@@H]2CC[C@H]2CN2C[C@@]3(CCCc4cc(Cl)ccc43)COc3ccc(cc32)C(=O)NS1(=O)=O (single isomer, unassigned) [Example 100018] |  |  |  | 0.061 | 49
C[C@@H]1[C@@H](C)C/C=C/C(O)([C@H]2OCCN(C)C2=O)[C@@H]2CC[C@H]2CN2C[C@@]3(CCCc4cc(Cl)ccc43)COc3ccc(cc32)C(=O)NS1(=O)=O (single isomer, unassigned) [Example 100019] |  |  | 58 | 0.182 | 
C[C@@H]1[C@@H](C)CCC[C@@](C)(O)[C@@H]2CC[C@H]2CN2C[C@@]3(CCCc4cc(Cl)ccc43)COc3ccc(cc32)C(=O)NS1(=O)=O (single isomer, unassigned) [Example 100048] |  |  | 551 | 0.187 | 

Reference: patent US10821115B2, “Compounds that inhibit Mcl-1 protein” (priority 2017, dated 2020)
